“Also recorded” adds a separate entry of the source.
Test system: Caerulein-induced pancreatitis
Assay: Pretreatment with ADM inducers in caerulein-induced pancreatitis: histology (ADM) and CD45 infiltration
Format: in vivo, mice
Conditions: 40 mg/kg b.i.d oral gavage before and during Caerulein; 24 hours after end of Caerulein injections
From the text: Epigenetic modifiers: Recently, the emerging role of epigenetic regulation has led to the development of a wide spectrum of small molecules targeting selectively bromodomain and extra-terminal (BET) protein family which are currently under evaluation in preclinical model of hematological malignancies and solid tumors (Asangani et al., 2014; Delmore et al., 2011; Filippakopoulos et al., 2010). Leveraging the persistent chromatin modifications induced by an acute inflammatory event, the possibility of limiting the detrimental effects of repeated pancreatitis was tested through the administration of INCB054329, a BRD4 inhibitor currently in phase I-II clinical studies in patients with advanced malignancies (Falchook et al., 2019).
Induction of acute pancreatitis. […] Control mice received injections of pyrogen-free PBS. Mice were examined daily for health conditions and sacrificed at the indicated time points by CO2 asphyxiation and cervical dislocation.
DAPI nuclear counterstaining was also performed.

In the case of `Cc1noc(C)c1-c1ccc2[nH]c(=O)n3c2c1OC[C@@H]3c1ccccn1` [INCB054329], the “ADM induction (histological evaluation)” value is reported as “massive induction of ADM; also recorded: significant ADM induction” and the “inflammatory infiltration (CD45 immunostaining)” value is reported as “dramatic reduction of inflammatory infiltration; also recorded: strong suppression of inflammation”.
